Laboratory results reported in publication PMC10641831 (Journal of Medicinal Chemistry, 2023).
Numbered stars: 1 amine (or outer) side, 2 acyl side, 3 side chain; on linkers, the order of the positions; unused ones are H or OH. Bridge positions count the residues as written; N and C are the ends. Square brackets hold non-standard residues; d marks the D form. Peptide text beside a SMILES is read from it. Phe(4-(Z)-phenylazo) = N[C@@H](Cc1ccc(/N=N\c2ccccc2)cc1)C(=O)O; AMPB(E) = O=C(c1ccc(/N=N/c2ccc(CN[*:1])cc2)cc1)[*:2]; X1 = O=C([C@H](Cc1ccc(/N=N/c2ccccc2)cc1)N[*:1])[*:2]; X2 = O=C(c1ccc(/N=N\c2ccc(CN[*:1])cc2)cc1)[*:2]

Molecular target: T1, hOTR (Homo sapiens, UniProt P30559)
T1 construct: expressed in transfected cells
T1 sequence (P30559 1-389): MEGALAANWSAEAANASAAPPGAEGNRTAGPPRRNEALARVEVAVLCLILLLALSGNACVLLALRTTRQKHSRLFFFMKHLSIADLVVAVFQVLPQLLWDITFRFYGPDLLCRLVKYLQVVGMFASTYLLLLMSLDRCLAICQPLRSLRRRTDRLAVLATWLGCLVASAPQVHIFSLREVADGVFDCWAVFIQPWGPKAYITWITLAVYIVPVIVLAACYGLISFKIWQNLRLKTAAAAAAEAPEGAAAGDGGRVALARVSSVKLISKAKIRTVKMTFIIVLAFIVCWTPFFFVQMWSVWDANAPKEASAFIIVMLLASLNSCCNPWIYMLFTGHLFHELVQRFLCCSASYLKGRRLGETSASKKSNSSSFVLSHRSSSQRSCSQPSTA
Assay: IP-One accumulation assay, agonist function, HEK293 cells expressing hOTR
Format: cell-based
Details: for EC50: IP-One, stable HEK293 hOTR, E = thermal equilibrium, Z = PSS after 340 nm, read-out: OTR EC50 ± SEM; for OTR E/Z ratio EC50: ratio of EC50 of E- and Z-isomer; for Emax: HEK293, relative to the effect of OT, read-out: OTR Emax ± SEM; for decrease in potency compared to OT at OTR: EC50 vs OT

Row | SMILES | EC50 [nM] | OTR E/Z ratio EC50 | OTR Emax ± SEM (relative to the effect of OT) [%] | Emax [%] | decrease in potency compared to OT at OTR [fold]
1 | CC[C@H](C)[C@@H]1NC(=O)[C@H](Cc2ccc(/N=N/c3ccccc3)cc2)NC(=O)[C@@H](N)CSSC[C@@H](C(=O)N2CCC[C@H]2C(=O)N[C@@H](CC(C)C)C(=O)NCC(N)=O)NC(=O)[C@H](CC(N)=O)NC(=O)[C@H](CCC(N)=O)NC1=O [E-8] (H-C[X1]IQNCPLG-NH2; disulfide 1-6) | 4500 ± 1010 | 1.3 | 45 ± 3 |  | 
2 | CC[C@H](C)[C@@H]1NC(=O)[C@H](Cc2ccc(O)cc2)NC(=O)[C@@H](N)CSSC[C@@H](C(=O)N[C@@H](Cc2ccc(/N=N/c3ccccc3)cc2)C(=O)N[C@@H](CC(C)C)C(=O)NCC(N)=O)NC(=O)[C@H](CC(N)=O)NC(=O)[C@H](CCC(N)=O)NC1=O [E-9] (H-CYIQNC[X1]LG-NH2; disulfide 1-6) | 346 ± 30 | 2.5 |  | 89 ± 1 | 
3 | CC[C@H](C)[C@@H]1NC(=O)[C@H](Cc2ccc(O)cc2)NC(=O)[C@@H](N)CSSC[C@@H](C(=O)NCc2ccc(/N=N/c3ccc(C(=O)NCC(N)=O)cc3)cc2)NC(=O)[C@H](CC(N)=O)NC(=O)[C@H](CCC(N)=O)NC1=O [E-10] (H-CYIQNC[AMPB(E)]G-NH2; disulfide 1-6) | 94.6 ± 19 | 3.1 |  | 80 ± 1 | 
4 | CC[C@H](C)[C@@H]1NC(=O)[C@H](Cc2ccc(O)cc2)NC(=O)[C@@H](N)CSSC[C@@H](C(=O)NCc2ccc(/N=N/c3ccc(C(=O)N[C@@H](CC(C)C)C(=O)NCC(N)=O)cc3)cc2)NC(=O)[C@H](CC(N)=O)NC(=O)[C@H](CCC(N)=O)NC1=O [E-11] (H-CYIQNC[AMPB(E)]LG-NH2; disulfide 1-6) | 263 ± 21 | 2.0 |  | 75 ± 1 | 
5 | CC[C@H](C)[C@@H]1NC(=O)[C@H](Cc2ccc(/N=N\c3ccccc3)cc2)NC(=O)[C@@H](N)CSSC[C@@H](C(=O)N2CCC[C@H]2C(=O)N[C@@H](CC(C)C)C(=O)NCC(N)=O)NC(=O)[C@H](CC(N)=O)NC(=O)[C@H](CCC(N)=O)NC1=O [Z-8] (H-C[Phe(4-(Z)-phenylazo)]IQNCPLG-NH2; disulfide 1-6) | 3500 ± 1890 | 1.3 |  | 35 ± 1 | 
6 | CC[C@H](C)[C@@H]1NC(=O)[C@H](Cc2ccc(O)cc2)NC(=O)[C@@H](N)CSSC[C@@H](C(=O)N[C@@H](Cc2ccc(/N=N\c3ccccc3)cc2)C(=O)N[C@@H](CC(C)C)C(=O)NCC(N)=O)NC(=O)[C@H](CC(N)=O)NC(=O)[C@H](CCC(N)=O)NC1=O [Z-9] (H-CYIQNC[Phe(4-(Z)-phenylazo)]LG-NH2; disulfide 1-6) | 136 ± 6 | 2.5 |  | 90 ± 1 | 55
7 | CC[C@H](C)[C@@H]1NC(=O)[C@H](Cc2ccc(O)cc2)NC(=O)[C@@H](N)CSSC[C@@H](C(=O)NCc2ccc(/N=N\c3ccc(C(=O)NCC(N)=O)cc3)cc2)NC(=O)[C@H](CC(N)=O)NC(=O)[C@H](CCC(N)=O)NC1=O [Z-10] (H-CYIQNC[X2]G-NH2; disulfide 1-6) | 30.7 ± 4 | 3.1 |  | 92 | 12
8 | CC[C@H](C)[C@@H]1NC(=O)[C@H](Cc2ccc(O)cc2)NC(=O)[C@@H](N)CSSC[C@@H](C(=O)NCc2ccc(/N=N\c3ccc(C(=O)N[C@@H](CC(C)C)C(=O)NCC(N)=O)cc3)cc2)NC(=O)[C@H](CC(N)=O)NC(=O)[C@H](CCC(N)=O)NC1=O [Z-11] (H-CYIQNC[X2]LG-NH2; disulfide 1-6) | 134 ± 17 | 2.0 |  | 86 ± 1 | 55
